{"source": "patent US11220534B2", "about": "“Treatment of neurological diseases” (Lancaster University Business Enterprises Limited, priority 2016, dated 2022)", "key": {"C57BL/6 mice given MPTP [1]": {"system": "C57BL/6 mice given MPTP", "assay": "Immunohistochemistry for TH in the substantia nigra pars compacta, MPTP Parkinson mouse model", "format": "in vivo", "settings": "10 nmol/kg i.p. once daily for 2 weeks, FIG. 4, N=6 per group", "source_text": "(§1) A standard model to induce Parkinson like symptoms in mice is the injection of the chemical (MPTP) (Li et al., 2009). This chemical impairs or kills neurons in the brain that produce dopamine. The mice develop motor impairments, and the dopaminergic neurons in the brain are reduced in numbers and function. The enzyme tyrosine hydroxylase (TH) is required to synthesise dopamine. A loss of TH signifies a loss of dopamine production (Harkavyi et al., 2008).\nAdult male C57BL/6 mice were given the dopaminergic toxin MPTP (20 mg/kg in 0.1 mL of PBS i.p. at 2-h intervals of 4 doses MPTP; Sigma) or vehicle (PBS) for one day. […]\nImmunohistochemistry for TH in the Substantia Nigra Pars Compacta and the Striatum Six animals per group were analysed for expression of tyrosine hydroxylase (TH), a marker for dopamine production. Coronal brain sections (20 μm) from striatum (bregma […]) and SNpc (bregma […]) were analysed by immunohistochemistry using antibodies recognising TH.\nSections were cut on a cryostat and postfixed in 4% paraformaldehyde, washed in PBS, treated with 0.3% H2O2 in methanol for 20 min, and washed again. […] For each animal, three tissue sections from one level of striatum were stained and analysed for TH-positive fibre innervation. […] Two tissue sections from each level were quantified by immunohistochemistry. […]"}, "C57BL/6 mice given MPTP [2]": {"system": "C57BL/6 mice given MPTP", "assay": "Rotarod motor control test in the MPTP Parkinson mouse model", "format": "in vivo", "settings": "10 nmol/kg i.p. once daily for 2 weeks, FIG. 3, N=6 per group", "source_text": "as §1\nAdult male C57BL/6 mice were given the dopaminergic toxin MPTP (20 mg/kg in 0.1 mL of PBS i.p. at 2-h intervals of 4 doses MPTP; Sigma) or vehicle (PBS) for one day. This treatment selectively affects dopaminergic neurons and induces Parkinson-like symptoms in mice.\nThe dose of peptide tested was 10 nmol/kg body weight. The peptides were administered by a once-daily intraperitoneal injection for 2 weeks. Saline injections were administered as a control. Six animals per group were injected with a peptide or a saline control.\nThe rotarod consists of a rotating pole that accelerates over time. Mice are placed on the rod, and motor skills are tested by accelerating the rotation. As the rotation increases, animals lose grip and fall on a cushion located below the rod. […] Each animal's endurance time was recorded, and the average was calculated. Data were analysed using a one-way ANOVA with post-hoc Bonferroni tests."}, "APP/PS1 transgenic mice [3]": {"system": "APP/PS1 transgenic mice", "assay": "Immunohistochemical measurement of beta-amyloid plaque load in the cortex of APP/PS1 transgenic mice", "format": "in vivo", "source_text": "(§2) Animal models have been developed to test novel drugs. A standard model for Alzheimer's disease is transgenic mice that express human mutated genes for amyloid production that are known to induce Alzheimer's disease in humans. These APP/PS1 transgenic mice recapitulate some of the symptoms of Alzheimer's disease such as the aggregation of amyloid in the brain, memory loss and the loss of synapses (Radde et al., 2006).\n(§3) The APP/PS1 mice express human Swedish mutated APP and human mutated presenilin-1 which induce Alzheimer's Disease in humans.\n(§4) The dose of peptide tested was 10 nmol/kg body weight. The peptides were administered by a once-daily intraperitoneal injection for 8 weeks. Saline injections were administered as a control. Six animals per group were injected with a peptide or a saline control.\n(§5) Animals (6 per group) were perfused transcardially with 30 ml of ice-cold PBS and 30 ml of ice-cold 4% paraformaldehyde to postfix the brain. The brains were removed and placed in fresh 30% sucrose solution in PBS to cryoprotect tissue and cut at a thickness of 40 μm on a cryostat. Sections were chosen according to stereological rules, with the first section taken at random and every 5th section afterwards. Between 7 and 13 sections were analysed per brain.\nImmunostaining techniques were used to assess the neuronal plaque load (anti beta-amyloid rabbit polyclonal antibody (1:200, rabbit polyclonal-Invitrogen 71-5800) and of synaptophysin (polyclonal rabbit anti-synaptophysin primary antibody, 1:2000, Abcam, Cambridge, UK) to measure the amount of synapses in the cortex. Brain samples were first exposed to 99% formic acid for 7 minutes and then washed 3 times for 10 minutes in TBS. Pre-treatment with 99% formic acid is known to drastically increase the detection of beta-Amyloid in formalin-fixed brain samples. Then samples were incubated in 0.3% H2O2 (Sigma Aldrich; Cat.-No.: 516813) in TBS for 30 minutes on the shaker to deplete endogenous peroxides activity, and were 3 times washed in TBS for 10 minutes afterwards.\nTo increase permeability of membranes in the brain tissue, samples were exposed to 0.3% Triton X-100 (Sigma Aldrich; Cat.-No.: 516813) in TBS for 10 minutes on the shaker. Unspecific proteinophilic binding in the tissue was saturated by incubating the samples with 5% goat serum (Gibco; Cat.-No.: 16210-064) in TBS for 30 minutes on the shaker.\nA primary antibody against beta-Amyloid or synaptophysin was added and incubated overnight on the shaker at 4° C. The antibody was polyclonal and raised against a synthetic beta-Amyloid 1-43 peptide in rabbit. The primary antibody was used in a final dilution of 1 to 250 in TBS containing 2% goat serum and […]. […]"}, "APP/PS1 transgenic mice [4]": {"system": "APP/PS1 transgenic mice", "assay": "Immunohistochemical measurement of synaptic densities (synaptophysin) in the cortex of APP/PS1 transgenic mice", "format": "in vivo", "settings": "10 nmol/kg i.p. once daily for 8 weeks, FIG. 2, N=6 per group", "source_text": "as §2, §3, §4\nas §5, with “per brain. […]” for “per brain.”"}, "[5]": {"system": "MPTP mouse model of Parkinson's disease", "settings": "cited from earlier work"}, "[6]": {"system": "APP/PS1 mouse model of AD", "settings": "12 months old APP/PS1 mice; cited from earlier work"}}, "note": "Where no end group is shown, it is not given here. [ ]: non-standard residue; d: D form. Aib = CC(C)(N)C(=O)O", "data": [{"substance": "YXEGTFTSDYSIYLDKQAAXEFVNWLLAGGPSSGAPPPSKKKKKK-NH2 (Y[Aib]EGTFTSDYSIYLDKQAA[Aib]EFVNWLLAGGPSSGAPPPSKKKKKK-NH2) [DA4, No. 11; X=aminoisobutyric acid]", "values": [{"measurement": "MPTP-induced reduction of TH in the substantia nigra, pars compacta (protection of dopaminergic neurons)", "setting": "C57BL/6 mice given MPTP [1]", "value": "protected dopaminergic neurons at a greater rate than the single GIP and GLP-1 analogues"}, {"measurement": "impairment of motor skills (rotarod endurance time)", "setting": "C57BL/6 mice given MPTP [2]", "value": "protect mice from an impairment of motor skills induced by MPTP"}, {"measurement": "beta-amyloid plaque load in the cortex (% area positive for beta amyloid in cross sections of the brain cortex)", "setting": "APP/PS1 transgenic mice [3]; 10 nmol/kg body weight, once-daily intraperitoneal injection for 8 weeks, FIG. 1, N=6 per group", "value": "reduces beta-amyloid plaque load"}, {"measurement": "beta-amyloid plaque load compared with the single GIP or GLP-1 analogues", "setting": "APP/PS1 transgenic mice [3]; 10 nmol/kg i.p. once daily for 8 weeks, FIG. 1", "value": "superior to the single GIP or GLP-1 analogues"}, {"measurement": "synapse loss / synaptic densities in the cortex", "setting": "APP/PS1 transgenic mice [4]", "value": "protected from synapse loss"}]}, {"substance": "lixisenatide", "values": [{"measurement": "motor impairment, chronic inflammation in the brain and loss of dopaminergic neurons induced by MPTP", "setting": "[5]", "value": "good effects in preventing the motor impairment, chronic inflammation in the brain, and loss of dopaminergic neurons"}]}, {"substance": "D-Ala^2-GIP", "values": [{"measurement": "amyloid plaque load", "setting": "[6]", "value": "much reduced"}, {"measurement": "synaptic plasticity in area CA1 of the hippocampus and spatial memory formation", "setting": "[6]", "value": "unimpaired"}, {"measurement": "motor impairment, chronic inflammation in the brain and loss of dopaminergic neurons induced by MPTP", "setting": "[5]", "value": "protective and prevented the impairment of motor activity, the loss of dopaminergic neurons, loss of synapses and the chronic inflammation response induced by MPTP"}]}]}
